The text below walks through data of patent US8906826B2, “Herbicidal compositions comprising 4-amino-3-chloro-5-fluoro-6-(4-chloro-2-fluoro-3-methoxyphenyl) pyridine-2-carboxylic acid or a derivative thereof and imidazolinones” (Dow AgroSciences, LLC, priority 2012, dated 2014).

One experiment has as its system CYPIR. The experiment is described as follows: Postemergence foliar-applied, direct seeded rice weeds (Example I). Format: in vivo, Cyperus iria L. An excerpt:
Seeds or nutlets of the desired test plant species were planted in a soil matrix prepared by mixing a loam or sandy loam soil (e.g., 28.6 percent silt, 18.8 percent clay, and 52.6 percent sand, with a pH of about 5.8 and an organic matter content of about 1.8 percent) and calcareous grit in an 80 to 20 ratio. The soil matrix was contained in plastic pots with a volume of 1 quart and a surface area of 83.6 cm^2. When required to ensure good germination and healthy plants, a fungicide treatment and/or other chemical or physical treatment was applied. The plants were grown for 8-22 days in a greenhouse with an approximate 14 h photoperiod which was maintained at about 29° C. during the day and 26° C. during the night. Nutrients (Peters Excel® 15-5-15 5-Ca 2-Mg and iron chelate) were applied in the irrigation solution as needed and water was added on a regular basis. Supplemental lighting was provided with overhead metal halide 1000-Watt lamps as necessary. The plants were employed for testing when they reached the first through fourth true leaf stage.
Treatments consisted of the acid or esters of 4-amino-3-chloro-5-fluoro-6-(4-chloro-2-fluoro-3-methoxy-phenyl)pyridine-2-carboxylic acid (Compound A), each formulated as an SC (suspension concentrate), and various herbicidal components alone and in combination. Forms of compound A were applied on an acid equivalent basis.
Other herbicidal components were applied on an acid equivalent basis and include acetolactate synthase (ALS)-inhibiting herbicides (imidazolinone chemical class) imazethapyr ammonium salt formulated as Newpath®, imazamox ammonium salt formulated as Beyond®, imazapic ammonium salt formulated as Plateau®, imazapyr isopropylamine salt formulated as Arsenal®, imazamethabenz-methyl (technical material) and imazaquin isopropylamine salt formulated as Scepter®/Imagine®.
Treatment requirements were calculated based upon the rates being tested, the concentration of active ingredient or acid equivalent in the formulation, and a 12 mL application volume at a rate of 187 L/ha.
For treatments comprised of formulated compounds, measured amounts of compounds were placed individually in 25 mL glass vials and diluted in a volume of 1.25% (v/v) Agri-Dex® crop oil concentrated to obtain 12× stock solutions. […] Application solutions were prepared by adding an appropriate amount of each stock solution (e.g., 1 mL) and diluted to the appropriate final concentrations with the addition of 10 mL of an aqueous mixture of 1.25% (v/v) crop oil concentrate so that the final spray solutions contained 1.25+/−0.05% (v/v) crop oil concentrate.
For treatments comprised of technical compounds, weighed amounts can be placed individually in 25 mL glass vials and dissolved in a volume of 97:3 v/v acetone/DMSO to obtain 12× stock solutions. […] Application solutions can be prepared by adding an appropriate amount of each stock solution (e.g., 1 mL) and diluted to the appropriate final concentrations with the addition of 10 mL of an aqueous mixture of 1.5% (v/v) crop oil concentrate so that the final spray solutions contain 1.25% (v/v) crop oil concentrate. When technical materials are used, the concentrated stock solutions can be added to the spray solutions so that the final acetone and DMSO concentrations of the application solutions are 16.2% and 0.5%, respectively.
For treatments comprised of formulated and technical compounds, weighed amounts of the technical materials were placed individually in 25 mL glass vials and dissolved in a volume of 97:3 v/v acetone/DMSO to obtain 12× stock solutions, and measured amounts of the formulated compounds were placed individually in 25 mL glass vials and diluted in a volume of 1.5% (v/v) crop oil concentrate or water to obtain 12× stock solutions. […]

The subject of a further experiment is ECHOR. Kind of experiment: In-water applied, transplanted paddy rice weeds (Example II). Type of experiment: in vivo, Echinochloa oryzoides (Ard.) Fritsch. On the procedure: Weed seeds or nutlets of the desired test plant species were planted in puddled soil (mud) prepared by mixing a shredded, non-sterilized mineral soil (50.5 percent silt, 25.5 percent clay, and 24 percent sand, with a pH of about 7.6 and an organic matter content of about 2.9 percent) and water at a 1:1 volumetric ratio. The prepared mud was dispensed in 365 mL aliquots into 16-ounce (oz.) non-perforated plastic pots with a surface area of 86.59 square centimeters (cm^2) leaving a headspace of 3 centimeters (cm) in each pot. Mud was allowed to dry overnight prior to planting or transplanting. Rice seeds were planted in Sun Gro MetroMix® 306 planting mixture, which typically has a pH of about 6.0 to about 6.8 and an organic matter content of about 30 percent, in plastic plug trays. Seedlings at the second or third leaf stage of growth were transplanted into 860 mL of mud contained in 32-oz. non-perforated plastic pots with a surface area of 86.59 cm^2 4 days prior to herbicide application. The paddy was created by filling the headspace of the pots with 2.5 to 3 cm of water. When required to ensure good germination and healthy plants, a fungicide treatment and/or other chemical or physical treatment was applied. The plants were grown for 4-22 days in a greenhouse with an approximate 14 h photoperiod which was maintained at about 29° C. during the day and about 26° C. during the night. Nutrients were added as Osmocote® (19:6:12, N:P:K+minor nutrients) at 2 g per 16-oz. pot and 4 g per 32-oz. pot. Water was added on a regular basis to maintain the paddy flood, and supplemental lighting was provided with overhead metal halide 1000-Watt lamps as necessary. The plants were employed for testing when they reached the first through fourth true leaf stage.
Treatments consisted of the acid or esters of 4-amino-3-chloro-5-fluoro-6-(4-chloro-2-fluoro-3-methoxy-phenyl)pyridine-2-carboxylic acid (compound A) each formulated as an SC and various herbicidal components alone and in combination. Forms of compound A were applied on an acid equivalent basis.
Other herbicidal components were applied on an acid equivalent basis and included the acetolactate synthase (ALS)-inhibiting imidazolinone herbicides imazethapyr ammonium salt formulated as Newpath®, imazamox ammonium salt formulated as Beyond®, imazapic ammonium salt formulated as Plateau®, imazapyr isopropylamine salt formulated as Arsenal®, imazamethabenz-methyl (technical material), and imazaquin isopropylamine salt formulated as Scepter®.
Treatment requirements for each compound or herbicidal component were calculated based upon the rates being tested, the concentration of active ingredient or acid equivalent in the formulation, an application volume of 2 mL per component per pot, and an application area of 86.59 cm^2 per pot.
For formulated compounds, a measured amount was placed in an individual 100 or 200 mL glass vial and was dissolved in a volume of 1.25% (v/v) Agri-Dex® crop oil concentrate to obtain application solutions.
For technical grade compounds, a weighed amount was placed in an individual 100 to 200 mL glass vial and was dissolved in a volume of acetone to obtain concentrated stock solutions. […] The concentrated stock solutions obtained were diluted with an equivalent volume of an aqueous mixture containing 2.5% (v/v) crop oil concentrate so that the final application solutions contained 1.25% (v/v) crop oil concentrate.
Applications were made by injecting with a pipetter appropriate amounts of the application solutions, individually and sequentially, into the aqueous layer of the paddy. Control plants were treated in the same manner with the solvent blank. Applications were made so that all treated plant material received the same concentrations of acetone and crop oil concentrate.
The treated plants and control plants were placed in a greenhouse as described above and water was added as needed to maintain a paddy flood. […]

Setting [1] is: Compound A Benzyl Ester 8.75 gae/ha.

Several values for one entry are separate records, joined by “and”; a condition that tells them apart may be missing. Identical values can stand only once.

As for `COCc1cnc(C2=NC(C)(C(C)C)C(=O)N2)c(C(=O)O)c1.N` (racemic) [Imazamox ammonium, ammonium (±)-2-[4,5-dihydro-4-methyl-4-(1-methylethyl)-5-oxo-1H-imidazol-2-yl]-5-(methoxymethyl)-3-pyridinecarboxylate], the “Visual Weed Control (%) - 25 DAA CYPIR Obs” value in the experiment with CYPIR (Imazamox ammonium 11.2 gae/ha) is listed as 20%; in the experiment with CYPIR (Imazamox ammonium 22.4 gae/ha), 70%. Moreover, the “Visual Weed Control (%) - 25 DAA ECHOR Obs” value with ECHOR (Imazamox ammonium 5.6 gae/ha), in the experiment with ECHOR (Imazamox ammonium 11.2 gae/ha) and in the experiment with ECHOR (Imazamox ammonium 22.4 gae/ha) was 0% each time.
Consider `COc1c(Cl)ccc(-c2nc(C(=O)OCc3ccccc3)c(Cl)c(N)c2F)c1F` [Compound A Benzyl Ester, benzyl ester of 4-amino-3-chloro-5-fluoro-6-(4-chloro-2-fluoro-3-methoxy-phenyl)pyridine-2-carboxylic acid], for which the “Visual Weed Control (%) - 22 DAA CYPIR Obs” value is 20% and 30% in the experiment with CYPIR (Compound A Benzyl Ester 8 gae/ha); 85% in the experiment on CYPIR (Compound A Benzyl Ester 16 gae/ha). In addition, in the experiment on CYPIR (setting [1]), the “Visual Weed Control (%) - 25 DAA CYPIR Obs” value turned out to be 75%. Moreover, in the experiment on ECHOR (setting [1]), the “Visual Weed Control (%) - 25 DAA ECHOR Obs” value came to 0%. In addition, the “Visual Weed Control (%) - 22 DAA ECHOR Obs” value in the experiment on ECHOR (Compound A Benzyl Ester 17.5 gae/ha) is reported as 30%.
On to `COc1c(Cl)ccc(-c2nc(C(=O)O)c(Cl)c(N)c2F)c1F` [Compound A Acid, 4-amino-3-chloro-6-(4-chloro-2-fluoro-3-methoxyphenyl)-5-fluoropyridine-2-carboxylic acid], for which the “Visual Weed Control (%) - 25 DAA CHOR Obs” value with ECHOR (Compound A Acid 8.75 gae/ha) came out at 0%; in the experiment with ECHOR (Compound A Acid 17.5 gae/ha) it was 0%; in the experiment with ECHOR (Compound A Acid 35 gae/ha) it was 10%. Moreover, the figures for the “Visual Weed Control (%) - 25 DAA ECHOR Obs” value in the experiment on ECHOR (Compound A Acid 8.75 gae/ha), with ECHOR (Compound A Acid 17.5 gae/ha) and in the experiment with ECHOR (Compound A Acid 35 gae/ha) were 0%, 0% and 10%, respectively. The “Visual Weed Control (%) - 22 DAA ECHOR Obs” value is on record as 15% with ECHOR (Compound A Acid 10.6 gae/ha) and 40% with ECHOR (Compound A Acid 42.4 gae/ha). The “Visual Weed Control (%) - 19 DAA ECHOR Obs” value with ECHOR (Compound A Acid 42 gae/ha) amounted to 15%.
Consider `CCc1cnc(C2=NC(C)(C(C)C)C(=O)N2)c(C(=O)O)c1.N` (racemic) [Imazethapyr ammonium, ammonium (±)-2-[4,5-dihydro-4-methyl-4-(1-methylethyl)-5-oxo-1H-imidazol-2-yl]-5-ethyl-3-pyridinecarboxylate], for which the results for the “Visual Weed Control (%) - 25 DAA ECHOR Obs” value with ECHOR (Imazethapyr ammonium 8.75 gae/ha), with ECHOR (Imazethapyr ammonium 17.5 gae/ha) and in the experiment on ECHOR (Imazethapyr ammonium 35 gae/ha) were 0%, 0% and 25%, respectively.
Turning to `Cc1cnc(C2=NC(C)(C(C)C)C(=O)N2)c(C(=O)O)c1.N` (racemic) [Imazapic ammonium, ammonium (±)-2-[4,5-dihydro-4-methyl-4-(1-methylethyl)-5-oxo-1H-imidazol-2-yl]-5-methyl-3-pyridinecarboxylic acid], the “Visual Weed Control (%) - 22 DAA CYPIR Obs” value with CYPIR (Imazapic ammonium 7 gae/ha) is reported as 20%. Besides, the “Visual Weed Control (%) - 25 DAA ECHOR Obs” value in the experiment on ECHOR (Imazapic ammonium 4.38 gae/ha), with ECHOR (Imazapic ammonium 8.75 gae/ha) and with ECHOR (Imazapic ammonium 17.5 gae/ha) was 0% in each case. In addition, the “Visual Weed Control (%) - 25 DAA CHOR Obs” value in the experiment on ECHOR (Imazapic ammonium 17.5 gae/ha) is reported as 0%. Further, the “Visual Weed Control (%) - 19 DAA ECHOR Obs” value with ECHOR (Imazapic ammonium 35 gae/ha) was found to be 78%.
